# Patent US10125100B2, “Kinase inhibitors” (Respivert Limited, priority 2014, dated 2018)
# Where two headings read alike, the source gives them in different places.
# How the values were obtained:
# non-mutant kinases = experiment: KinomeScan selectivity scores; assay type: binding; conditions: for number of individual kinase hits S(1): % Ctrl <1; for number of individual kinase hits S(10): % Ctrl <10; for number of individual kinase hits S(35): % Ctrl <35; for KinomeScan Selectivity Score S(1): non-mutant kinases with % Ctrl <1 / kinases tested; for KinomeScan Selectivity Score S(10): non-mutant kinases with % Ctrl <10 / kinases tested; for KinomeScan Selectivity Score S(35): non-mutant kinases with % Ctrl <35 / kinases tested
# From the text: (§1) These assays may be conducted by DiscoverX (formerly Ambit; San Diego, Calif.).
# p38 MAPKα (MAPK14) = p38 MAPKα (MAPK14) (Homo sapiens (Human), UniProt Q16539); experiment: p38 MAPKα enzyme inhibition (Method 2), Z-LYTE FRET; assay type: biochemical
# p38 MAPKα (MAPK14), sequence (Q16539 whole entry): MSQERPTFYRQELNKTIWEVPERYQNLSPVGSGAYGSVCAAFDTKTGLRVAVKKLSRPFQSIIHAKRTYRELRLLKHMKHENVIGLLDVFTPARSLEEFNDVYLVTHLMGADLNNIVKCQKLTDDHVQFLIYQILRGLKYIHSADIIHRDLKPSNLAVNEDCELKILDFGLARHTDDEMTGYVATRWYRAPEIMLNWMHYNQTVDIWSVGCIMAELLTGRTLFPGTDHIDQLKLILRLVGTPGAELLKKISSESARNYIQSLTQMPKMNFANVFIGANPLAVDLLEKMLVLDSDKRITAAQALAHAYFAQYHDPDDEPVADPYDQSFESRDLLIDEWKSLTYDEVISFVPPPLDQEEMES
# Procedure, shortened: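 Enzyme (200 ng/mL solution) was preincubated 2 h at RT with compound solutions of 1, 0.1, 0.01 or 0.001 μg/mL, and inhibition was read indirectly via MAPKAP-K2 activation/phosphorylation. After a 1 h RT reaction and 1 h protease development, phosphorylation was derived from the coumarin/fluorescein emission ratio.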
# c-Src = c-Src (Homo sapiens (Human), UniProt P12931); experiment: c-Src enzyme inhibition, Z-LYTE FRET; assay type: biochemical
# c-Src, sequence (P12931 whole entry, looked up): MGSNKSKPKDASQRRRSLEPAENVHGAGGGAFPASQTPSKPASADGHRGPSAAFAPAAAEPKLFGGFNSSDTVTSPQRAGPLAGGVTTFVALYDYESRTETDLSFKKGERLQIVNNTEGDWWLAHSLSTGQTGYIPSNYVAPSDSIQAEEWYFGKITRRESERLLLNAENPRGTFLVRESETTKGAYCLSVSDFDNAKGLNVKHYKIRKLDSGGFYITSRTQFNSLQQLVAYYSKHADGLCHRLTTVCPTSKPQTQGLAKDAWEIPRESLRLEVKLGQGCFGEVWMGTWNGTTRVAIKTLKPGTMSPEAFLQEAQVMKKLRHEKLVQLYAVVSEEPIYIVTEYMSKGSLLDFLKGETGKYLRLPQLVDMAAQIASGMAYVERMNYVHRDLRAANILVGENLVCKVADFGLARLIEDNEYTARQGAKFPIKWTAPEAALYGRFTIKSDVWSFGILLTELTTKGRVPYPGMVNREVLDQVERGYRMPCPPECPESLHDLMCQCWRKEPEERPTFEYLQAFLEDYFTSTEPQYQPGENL
# Procedure, shortened: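 Human Syk and c-Src (enzyme at 2000 or 3000 ng/mL respectively, pre-dilution) preincubated 2 hr at RT with compound at 1, 0.1, 0.01 or 0.001 μg/mL; FRET peptide added with ATP (60 μM Syk, 800 μM c-Src; solution concentrations), 1 hr. Protease development 1 hr; phosphorylation from coumarin/fluorescein emission ratio.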
# B-Raf = B-Raf (Homo sapiens (Human), UniProt P15056); experiment: KINOMEscan binding of kinase to standard ligand; conditions: KINOMEscan technology
# B-Raf, sequence (P15056 whole entry): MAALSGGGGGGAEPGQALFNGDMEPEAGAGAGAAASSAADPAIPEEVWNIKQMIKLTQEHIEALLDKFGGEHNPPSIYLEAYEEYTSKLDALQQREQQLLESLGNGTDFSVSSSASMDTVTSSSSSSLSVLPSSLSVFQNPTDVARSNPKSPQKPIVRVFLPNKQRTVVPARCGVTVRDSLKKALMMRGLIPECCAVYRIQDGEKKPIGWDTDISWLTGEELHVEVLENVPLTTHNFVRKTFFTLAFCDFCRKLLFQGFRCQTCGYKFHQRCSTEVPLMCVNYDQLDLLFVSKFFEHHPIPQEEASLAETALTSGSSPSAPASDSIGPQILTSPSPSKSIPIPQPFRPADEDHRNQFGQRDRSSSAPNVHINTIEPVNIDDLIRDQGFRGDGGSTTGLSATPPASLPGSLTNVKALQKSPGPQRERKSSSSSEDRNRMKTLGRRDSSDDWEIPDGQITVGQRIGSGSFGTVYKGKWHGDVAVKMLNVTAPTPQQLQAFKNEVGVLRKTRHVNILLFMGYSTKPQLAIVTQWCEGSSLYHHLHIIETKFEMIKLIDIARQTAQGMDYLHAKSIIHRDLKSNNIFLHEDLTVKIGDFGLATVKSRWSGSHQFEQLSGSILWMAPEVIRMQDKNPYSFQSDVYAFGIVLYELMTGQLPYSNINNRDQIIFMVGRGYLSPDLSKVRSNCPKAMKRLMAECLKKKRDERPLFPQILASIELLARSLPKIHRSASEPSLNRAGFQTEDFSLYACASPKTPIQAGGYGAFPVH
# From the text: as §1
# B-Raf (V600E) = B-Raf (V600E) (Homo sapiens (Human), UniProt P15056, V600E); experiment: KINOMEscan binding of kinase to standard ligand; conditions: KINOMEscan technology
# B-Raf (V600E), sequence (P15056 whole entry V600E): as the sequence (P15056 whole entry) above, with V600E counted along it
# From the text: as §1
# [1] = Pharmacokinetics and total colon distribution after oral administration; assay type: in vivo; conditions: male, C57BL/6, mouse, mice, Ex. 36 measured after oral 5 mg/kg of Ex. 47 (Na salt)
# Method: Studies were conducted by Sai Life Sciences (Hinjewadi, Pune, India) to investigate the systemic pharmacokinetics and total colon tissue distribution of compounds of the invention. In particular, pharmacokinetic studies were carried out in male C57BL/6 mice following a single oral administration of the compound.
# Syk = Syk (Homo sapiens (Human), UniProt P43405); experiment: Syk enzyme inhibition, Z-LYTE FRET; assay type: biochemical
# Procedure, shortened: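 Syk or c-Src enzyme (3000 or 2000 ng/mL solutions) was preincubated 2 h at RT with compound solutions at 1, 0.1, 0.01 or 0.001 µg/mL. Z-LYTE FRET peptide (8 µM solution) and ATP (800 µM solution for c-Src, 60 µM for Syk) were then added for 1 h, followed by protease development for 1 h. Phosphorylation was read as the coumarin/fluorescein emission ratio.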
# Jurkat cells = experiment: (r) Cell cytotoxicity assay; assay type: cell-based, human; conditions: 24 hours
# Procedure, shortened: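 Jurkat cells (1×10^5/well, RPMI + 10% FBS) exposed to compound at 20, 5 or 1 μg/mL final (1.0% DMSO control) for 24 h at 37° C., 5% CO2. Then stained with 7.5 μg/mL propidium iodide for 15 min. % viability = PI-negative cells by flow cytometry, normalized to DMSO.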
# [2] = total colon, read-out: total colon level
# [3] = whole blood, read-out: Mean blood concentration
smiles,measurement,setting,value
"COc1cc(Nc2cc(Oc3ccc(NC(=O)Nc4cc(C(C)(C)C)cc(NS(C)(=O)=O)c4OC)c4ccccc34)ccn2)cc(OC)c1C(=O)NCCOCCOCCO [Example 36, 4-((4-((4-(3-(5-(tert-butyl)-2-methoxy-3-(methylsulfonamido)phenyl)ureido)naphthalen-1-yl)oxy)pyridin-2-yl)amino)-N-(2-(2-(2-hydroxyethoxy)ethoxy)ethyl)-2,6-dimethoxybenzamide]",number of individual kinase hits S(1),non-mutant kinases; 50 nM,1
same,number of individual kinase hits S(10),non-mutant kinases; 50 nM,20
same,number of individual kinase hits S(35),non-mutant kinases; 50 nM,60
same,KinomeScan Selectivity Score S(1),non-mutant kinases; 50 nM,0.002
same,KinomeScan Selectivity Score S(10),non-mutant kinases; 50 nM,0.050
same,KinomeScan Selectivity Score S(35),non-mutant kinases; 50 nM,0.149
same,number of individual kinase hits S(1),non-mutant kinases; 500 nM,32
same,number of individual kinase hits S(10),non-mutant kinases; 500 nM,83
same,number of individual kinase hits S(35),non-mutant kinases; 500 nM,120
same,KinomeScan Selectivity Score S(1),non-mutant kinases; 500 nM,0.079
same,KinomeScan Selectivity Score S(10),non-mutant kinases; 500 nM,0.206
same,KinomeScan Selectivity Score S(35),non-mutant kinases; 500 nM,0.298
same,IC50,p38 MAPKα (MAPK14),19 nM
same,IC50,c-Src,10 nM
same,effect on the binding of B-Raf to its standard ligand,B-Raf,did not have any significant effect
same,effect on the binding of B-Raf (V600E) to its standard ligand,B-Raf (V600E),did not have any significant effect
same,concentration at 0.5 h,[1]; [2],37.8 ng/g
same,concentration at 1 h,[1]; [2],95.1 ng/g
same,concentration at 2 h,[1]; [2],643 ng/g
same,concentration at 4 h,[1]; [2],798 ng/g
same,concentration at 6 h,[1]; [2],380 ng/g
same,concentration at 8 h,[1]; [2],1070 ng/g
same,concentration at 12 h,[1]; [2],139 ng/g
same,concentration at 24 h,[1]; [2],0 ng/g
same,concentration at 0.5 h,[1]; [3],0 ng/mL
same,concentration at 1 h,[1]; [3],0 ng/mL
same,concentration at 2 h,[1]; [3],0 ng/mL
same,concentration at 4 h,[1]; [3],0 ng/mL
same,concentration at 6 h,[1]; [3],0 ng/mL
same,concentration at 8 h,[1]; [3],0 ng/mL
same,concentration at 12 h,[1]; [3],0 ng/mL
same,concentration at 24 h,[1]; [3],0 ng/mL
same,IC50,Syk,190 nM
same,% Viability at 1 μg/mL,Jurkat cells; 1 μg/mL,93.3%
same,% Viability at 5 μg/mL,Jurkat cells; 5 μg/mL,89.3%
same,% Viability at 20 μg/mL,Jurkat cells; 20 μg/mL,84.9%
